Results reported in patent US10519211B2, “Compounds as peptidic GLP1/glucagon/GIP receptor agonists” (SANOFI, priority 2016, dated 2019).
Numbered stars: 1 amine (or outer) side, 2 acyl side, 3 side chain; on linkers, the order of the positions; unused ones are H or OH. Square brackets hold non-standard residues; d marks the D form. Side chains are listed from the residue outwards. Peptide text beside a SMILES is read from it. * marks the point of attachment. γGlu = O=C(O)[C@H](CCC(=O)[*:2])N[*:1]; Palmitoyl = CCCCCCCCCCCCCCCC(=O)*; Aib = CC(C)(N)C(=O)O

Columns and labels:
[1] = Thioflavin T (ThT) assay for physical stability (fibrillation); format: physicochemical; settings: 3 mg/ml, 100 mM acetate pH 4.5 with m-cresol, shaking at 37° C.
How it was run: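 Peptide at 3 mg/ml with 100 μM ThT in 100 mM acetate pH 4.5 with m-cresol, stressed at 37° C by cycles of 10 s shaking at 960 rpm and 50 s rest. Fluorescence read every 20 minutes, eight replicates; lag time in hours.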

[2] = Chemical stability assessment (UPLC-UV, relative purity loss); format: physicochemical; settings: 1 mg/ml, 25 mM acetate buffer pH 4.5 with m-cresol (buffer system A)
How it was run: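 Peptide at 1 mg/mL (purity-corrected) in 25 mM acetate pH 4.5 with methionine, m-cresol and glycerol, sterile-filtered, stored 28 days at 40° C. Purity measured by UPLC-UV as peptide peak area fraction at start and after storage; value is relative percent purity loss.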

Lag time before increase [1] [h]	Chemical stability [relative purity loss 28 days 40° C.] (%) at pH 4.5 [2] [%]	SMILES
>45	7.6	CCCCCCCCCCCCCCCC(=O)N[C@@H](CCC(=O)N[C@@H](CCC(=O)NCCCC[C@H](NC(=O)[C@H](CC(C)C)NC(=O)[C@H](CCCCN)NC(=O)[C@H](CO)NC(=O)[C@H](CC(C)C)NC(=O)[C@H](CC(=O)O)NC(=O)[C@H](CO)NC(=O)[C@@H](NC(=O)[C@H](Cc1ccccc1)NC(=O)[C@@H](NC(=O)CNC(=O)[C@H](CCC(N)=O)NC(=O)C(C)(C)NC(=O)[C@@H](N)Cc1c[nH]cn1)[C@@H](C)O)[C@@H](C)O)C(=O)N[C@@H](CCC(=O)O)C(=O)N[C@@H](CCC(=O)O)C(=O)N[C@@H](CCC(N)=O)C(=O)N[C@@H](CCCNC(=N)N)C(=O)N[C@@H](CCC(N)=O)C(=O)NC(C)(C)C(=O)N[C@@H](CCC(=O)O)C(=O)N[C@@H](Cc1ccccc1)C(=O)N[C@H](C(=O)N[C@@H](CCC(=O)O)C(=O)N[C@@H](Cc1c[nH]c2ccccc12)C(=O)N[C@@H](CC(C)C)C(=O)N[C@@H](CCCCN)C(=O)N[C@@H](C)C(=O)NCC(=O)NCC(=O)N[C@@H](Cc1c[nH]cn1)C(=O)N1CCC[C@H]1C(=O)N[C@@H](CO)C(=O)NC(C)(C)C(=O)N[C@@H](CCCCN)C(=O)N1CCC[C@H]1C(=O)N1CCC[C@H]1C(=O)N1CCC[C@H]1C(=O)N[C@@H](CCCCN)C(N)=O)[C@@H](C)CC)C(=O)O)C(=O)O [SEQ ID NO: 8, H-Aib-Q-G-T-F-T-S-D-L-S-K-L-K[gGlu-gGlu-Palm]-E-E-Q-R-Q-Aib-E-F-I-E-W-L-K-A-G-G-H-P-S-Aib-K-P-P-P-K-NH2]
>45	8.7	CCCCCCCCCCCCCCCC(=O)N[C@@H](CCC(=O)N[C@@H](CCC(=O)NCCCC[C@H](NC(=O)[C@H](CC(C)C)NC(=O)[C@H](CCCCN)NC(=O)[C@H](CO)NC(=O)[C@H](CC(C)C)NC(=O)[C@H](CC(=O)O)NC(=O)[C@H](CO)NC(=O)[C@@H](NC(=O)[C@H](Cc1ccccc1)NC(=O)[C@@H](NC(=O)CNC(=O)[C@H](CCC(N)=O)NC(=O)C(C)(C)NC(=O)[C@@H](N)Cc1c[nH]cn1)[C@@H](C)O)[C@@H](C)O)C(=O)N[C@@H](CCC(=O)O)C(=O)N[C@@H](CCC(=O)O)C(=O)N[C@@H](CCC(N)=O)C(=O)N[C@@H](CCCNC(=N)N)C(=O)N[C@@H](CCC(N)=O)C(=O)NC(C)(C)C(=O)N[C@@H](CCC(=O)O)C(=O)N[C@@H](Cc1ccccc1)C(=O)N[C@H](C(=O)N[C@@H](CCC(=O)O)C(=O)N[C@@H](Cc1c[nH]c2ccccc12)C(=O)N[C@@H](CC(C)C)C(=O)N[C@@H](CCCCN)C(=O)N[C@@H](C)C(=O)NCC(=O)NCC(=O)N1CCC[C@H]1C(=O)N1CCC[C@H]1C(=O)N[C@@H](CO)C(=O)NC(C)(C)C(=O)N[C@@H](CCCCN)C(=O)N1CCC[C@H]1C(=O)N1CCC[C@H]1C(=O)N1CCC[C@H]1C(=O)N[C@@H](CCCCN)C(N)=O)[C@@H](C)CC)C(=O)O)C(=O)O [SEQ ID NO: 9, H-Aib-Q-G-T-F-T-S-D-L-S-K-L-K[gGlu-gGlu-Palm]-E-E-Q-R-Q-Aib-E-F-I-E-W-L-K-A-G-G-P-P-S-Aib-K-P-P-P-K-NH2]
>45	7.4	CCCCCCCCCCCCCCCC(=O)N[C@@H](CCC(=O)N[C@@H](CCC(=O)NCCCC[C@H](NC(=O)[C@H](CC(C)C)NC(=O)[C@H](CCCCN)NC(=O)[C@H](CO)NC(=O)[C@H](CC(C)C)NC(=O)[C@H](CC(=O)O)NC(=O)[C@H](CO)NC(=O)[C@@H](NC(=O)[C@H](Cc1ccccc1)NC(=O)[C@@H](NC(=O)CNC(=O)[C@H](CCC(N)=O)NC(=O)C(C)(C)NC(=O)[C@@H](N)Cc1c[nH]cn1)[C@@H](C)O)[C@@H](C)O)C(=O)N[C@@H](CCC(=O)O)C(=O)N[C@@H](CCC(=O)O)C(=O)N[C@@H](CCC(N)=O)C(=O)N[C@@H](CCCNC(=N)N)C(=O)N[C@@H](CCC(N)=O)C(=O)NC(C)(C)C(=O)N[C@@H](CCC(=O)O)C(=O)N[C@@H](Cc1ccccc1)C(=O)N[C@H](C(=O)N[C@@H](CCC(=O)O)C(=O)N[C@@H](Cc1c[nH]c2ccccc12)C(=O)N[C@@H](CC(C)C)C(=O)N[C@@H](CCCCN)C(=O)N[C@@H](C)C(=O)N[C@H](C)C(=O)NCC(=O)N1CCC[C@H]1C(=O)N1CCC[C@H]1C(=O)N[C@@H](CO)C(=O)NC(C)(C)C(=O)N[C@@H](CCCCN)C(=O)N1CCC[C@H]1C(=O)N1CCC[C@H]1C(=O)N1CCC[C@H]1C(=O)N[C@@H](CCCCN)C(N)=O)[C@@H](C)CC)C(=O)O)C(=O)O [SEQ ID NO: 10, H-Aib-Q-G-T-F-T-S-D-L-S-K-L-K[gGlu-gGlu-Palm]-E-E-Q-R-Q-Aib-E-F-I-E-W-L-K-A-dAla-G-P-P-S-Aib-K-P-P-P-K-NH2] (H-H[Aib]QGTFTSDLSKLK([γGlu-γGlu-Palmitoyl])EEQRQ[Aib]EFIEWLKA[dA]GPPS[Aib]KPPPK-NH2)
